Experimental data published in ChEMBL document CHEMBL3804756 (J Med Chem, 2016).

Molecular target: T1, Histamine H1 receptor (Homo sapiens, UniProt P35367)
Assay: Displacement of [3H]mepyramine from human histamine H1 receptor expressed in sf9 cell membrane co-expressing RGS4 incubated for 60 mins by liquid scintillation counting method
Conditions: not given

T1 sequence (P35367 whole entry): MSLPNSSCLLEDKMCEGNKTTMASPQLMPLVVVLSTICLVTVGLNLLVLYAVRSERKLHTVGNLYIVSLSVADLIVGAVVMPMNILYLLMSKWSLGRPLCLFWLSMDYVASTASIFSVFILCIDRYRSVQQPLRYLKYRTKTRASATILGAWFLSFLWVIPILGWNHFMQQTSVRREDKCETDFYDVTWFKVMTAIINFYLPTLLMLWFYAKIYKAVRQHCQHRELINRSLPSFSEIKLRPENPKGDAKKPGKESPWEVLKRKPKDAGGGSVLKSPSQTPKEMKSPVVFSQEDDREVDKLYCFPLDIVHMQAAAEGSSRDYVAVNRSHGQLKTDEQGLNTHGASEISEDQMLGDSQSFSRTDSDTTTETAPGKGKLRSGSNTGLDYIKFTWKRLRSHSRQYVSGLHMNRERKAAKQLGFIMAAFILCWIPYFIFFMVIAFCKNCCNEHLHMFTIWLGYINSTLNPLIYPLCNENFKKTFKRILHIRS

| Structure (SMILES) | Ki |
| --- | --- |
| CN/C(=N\C#N)NC[C@@H]1CC[C@H](c2c[nH]cn2)C1 (racemic) [listing 1 of 2 here] | > 10 µM |
| CC(C)CN/C(=N/C#N)NC[C@H]1CC[C@H](c2c[nH]cn2)C1 (racemic) | 8.75 µM |

Same assay, conditions: sf9

| Structure (SMILES) | Ki |
| --- | --- |
| CN/C(=N\C#N)NC[C@H]1CC[C@H](c2c[nH]cn2)C1 [listing 1 of 2 here] | > 10 µM |
| CN/C(=N\C#N)NC[C@@H]1CC[C@H](c2c[nH]cn2)C1 [listing 1 of 2 here] | > 10 µM |

Molecular target: T2, Histamine H2 receptor (Homo sapiens, UniProt P25021)
T2 sequence (P25021 whole entry): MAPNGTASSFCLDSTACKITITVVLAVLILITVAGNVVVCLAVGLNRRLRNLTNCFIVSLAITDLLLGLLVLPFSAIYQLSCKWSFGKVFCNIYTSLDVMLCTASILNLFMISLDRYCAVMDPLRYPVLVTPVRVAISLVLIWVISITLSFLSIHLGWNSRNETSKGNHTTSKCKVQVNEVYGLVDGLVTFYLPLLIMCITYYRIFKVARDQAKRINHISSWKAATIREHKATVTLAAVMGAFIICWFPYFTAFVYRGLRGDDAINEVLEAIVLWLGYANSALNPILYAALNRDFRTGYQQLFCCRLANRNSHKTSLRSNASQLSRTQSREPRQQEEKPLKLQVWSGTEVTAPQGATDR
Assay: Antagonist activity at human histamine H2 receptor expressed in sf9 cell membrane co-expressing Gsalphas assessed as inhibition of histamine-induced [35S]GTPgammaS binding incubated for 90 mins
Format: functional
Conditions: not given

| Structure (SMILES) | Kb |
| --- | --- |
| CN/C(=N\C#N)NC[C@@H]1CC[C@H](c2c[nH]cn2)C1 [listing 2 of 2 here] | > 10 µM |
| CN/C(=N\C#N)NC[C@H]1CC[C@H](c2c[nH]cn2)C1 [listing 2 of 2 here] | > 10 µM |
| N#C/N=C(/NCCSc1ccccc1)NC[C@@H]1CC[C@H](c2c[nH]cn2)C1 | > 10 µM |
| N#C/N=C(/NCCSc1ccccc1)NC[C@H]1CC[C@H](c2c[nH]cn2)C1 | > 10 µM |
| CC(C)CN/C(=N/C#N)NC[C@H]1CC[C@H](c2c[nH]cn2)C1 (racemic) | > 10 µM |
| CN/C(=N\C#N)NC[C@@H]1CC[C@H](c2c[nH]cn2)C1 (racemic) [listing 2 of 2 here] | > 10 µM |
| CN/C(=N\C#N)NC[C@H]1CC[C@H](c2c[nH]cn2)C1 (racemic) | > 10 µM |
| N#C/N=C(/NCCSc1ccccc1)NC[C@@H]1CC[C@H](c2c[nH]cn2)C1 (racemic) | > 10 µM |
| N#C/N=C(/NCCSc1ccccc1)NC[C@H]1CC[C@H](c2c[nH]cn2)C1 (racemic) | > 10 µM |

Molecular target: T2, Histamine H2 receptor
Assay: Intrinsic activity at human histamine H2 receptor expressed in sf9 cell membrane co-expressing Gsalphas at 10 uM incubated for 90 mins by [35S]GTPgammaS binding assay relative to histamine
Format: functional
Conditions: not given

| Structure (SMILES) | Intrinsic activity |
| --- | --- |
| N#C/N=C(/NCCCCc1c[nH]cn1)NCCSc1ccccc1 | 0 |
| CCC(=O)/N=C(\N)NCCCc1c[nH]cn1 | 0.8 |
| CN/C(=N\C#N)NC[C@@H]1CC[C@H](c2c[nH]cn2)C1 [listing 2 of 2 here] | 0 |
| CN/C(=N\C#N)NC[C@H]1CC[C@H](c2c[nH]cn2)C1 [listing 2 of 2 here] | 0 |
| N#C/N=C(/NCCSc1ccccc1)NC[C@@H]1CC[C@H](c2c[nH]cn2)C1 | 0 |
| N#C/N=C(/NCCSc1ccccc1)NC[C@H]1CC[C@H](c2c[nH]cn2)C1 | 0 |
| CC(C)CN/C(=N/C#N)NC[C@H]1CC[C@H](c2c[nH]cn2)C1 (racemic) | 0 |
| CN/C(=N\C#N)NC[C@@H]1CC[C@H](c2c[nH]cn2)C1 (racemic) [listing 2 of 2 here] | 0 |
| CN/C(=N\C#N)NC[C@H]1CC[C@H](c2c[nH]cn2)C1 (racemic) | 0 |
| N#C/N=C(/NCCSc1ccccc1)NC[C@@H]1CC[C@H](c2c[nH]cn2)C1 (racemic) | 0 |
| N#C/N=C(/NCCSc1ccccc1)NC[C@H]1CC[C@H](c2c[nH]cn2)C1 (racemic) | 0 |
| Cc1nc[nH]c1CCN [4-METHYLHISTAMINE] | 1 |

Molecular target: T3, Histamine H3 receptor (Homo sapiens, UniProt Q9Y5N1)
T3 sequence (Q9Y5N1 whole entry): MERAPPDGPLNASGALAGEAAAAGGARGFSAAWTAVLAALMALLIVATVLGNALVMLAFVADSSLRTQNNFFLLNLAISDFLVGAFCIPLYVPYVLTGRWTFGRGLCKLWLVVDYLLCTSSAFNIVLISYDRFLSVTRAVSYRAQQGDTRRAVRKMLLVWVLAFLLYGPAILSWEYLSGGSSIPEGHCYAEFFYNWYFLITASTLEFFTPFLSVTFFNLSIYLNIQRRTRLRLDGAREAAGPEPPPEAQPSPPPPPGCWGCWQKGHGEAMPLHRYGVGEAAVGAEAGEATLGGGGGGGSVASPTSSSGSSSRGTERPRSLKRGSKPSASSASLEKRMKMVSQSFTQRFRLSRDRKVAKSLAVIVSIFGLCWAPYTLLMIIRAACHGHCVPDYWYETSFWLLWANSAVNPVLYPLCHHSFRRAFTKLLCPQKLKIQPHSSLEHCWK
Assay: Antagonist activity at human histamine H3 receptor expressed in sf9 cell membrane co-expressing mammalian Galphai2 and Gbeta1gamma2 assessed as inhibition of histamine-induced [35S]GTPgammaS binding incubated for 90 mins
Format: functional
Conditions: not given

| Structure (SMILES) | Kb |
| --- | --- |
| N#C/N=C(/NCCSc1ccccc1)N[C@H]1CC[C@@H](c2c[nH]cn2)CC1 | 1.9 µM |
| N#C/N=C(/NCCSc1ccccc1)NC[C@@H]1CC[C@H](c2c[nH]cn2)C1 | 0.718 µM |
| N#C/N=C(/NCCSc1ccccc1)NC[C@H]1CC[C@H](c2c[nH]cn2)C1 | 1.15 µM |
| N#C/N=C(/NCCSc1ccccc1)N[C@H]1CC[C@H](c2c[nH]cn2)CC1 | 0.18 µM |
| N#C/N=C(/NCCSc1ccccc1)NC[C@@H]1CC[C@H](c2c[nH]cn2)C1 (racemic) | 0.162 µM |
| N#C/N=C(/NCCSc1ccccc1)NC[C@H]1CC[C@H](c2c[nH]cn2)C1 (racemic) | 0.246 µM |

Molecular target: T2, Histamine H2 receptor
Assay: Displacement of [3H]tiotidine from human histamine H2 receptor expressed in sf9 cell membrane co-expressing Gsalphas incubated for 60 mins by liquid scintillation counting method
Conditions: not given

| Structure (SMILES) | Ki |
| --- | --- |
| CN/C(=N\C#N)NC[C@H]1CC[C@H](c2c[nH]cn2)C1 [listing 1 of 2 here] | > 10 µM |
| CN/C(=N\C#N)NC[C@@H]1CC[C@H](c2c[nH]cn2)C1 [listing 1 of 2 here] | > 10 µM |

Molecular target: T3, Histamine H3 receptor
Assay: Agonist activity at human histamine H3 receptor expressed in sf9 cell membrane co-expressing mammalian Galphai2 and Gbeta1gamma2 incubated for 90 mins by [35S]GTPgammaS binding assay
Format: functional
Conditions: not given

| Structure (SMILES) | EC50 |
| --- | --- |
| N#C/N=C(/NCCCCc1c[nH]cn1)NCCSc1ccccc1 | 0.72 µM |
| CN/C(=N\C#N)NC[C@H]1CC[C@H](c2c[nH]cn2)C1 [listing 1 of 2 here] | 0.994 µM |
| CN/C(=N\C#N)NC[C@@H]1CC[C@H](c2c[nH]cn2)C1 [listing 1 of 2 here] | 0.212 µM |
| CN/C(=N\C#N)NC[C@@H]1CC[C@H](c2c[nH]cn2)C1 (racemic) [listing 1 of 2 here] | 0.547 µM |
| CC(C)CN/C(=N/C#N)NC[C@H]1CC[C@H](c2c[nH]cn2)C1 (racemic) | 0.578 µM |
| Cc1nc[nH]c1CCN [4-METHYLHISTAMINE] | 12.4 µM |

Molecular target: T3, Histamine H3 receptor
Assay: Intrinsic activity at human histamine H3 receptor expressed in sf9 cell membrane co-expressing mammalian Galphai2 and Gbeta1gamma2 at 10 uM incubated for 90 mins by [35S]GTPgammaS binding assay relative to histamine
Format: functional
Conditions: not given

| Structure (SMILES) | Intrinsic activity |
| --- | --- |
| N#C/N=C(/NCCCCc1c[nH]cn1)NCCSc1ccccc1 | -0.52 |
| CCC(=O)/N=C(\N)NCCCc1c[nH]cn1 | 0.4 |
| CN/C(=N\C#N)NC[C@@H]1CC[C@H](c2c[nH]cn2)C1 [listing 2 of 2 here] | 0.61 |
| CN/C(=N\C#N)NC[C@H]1CC[C@H](c2c[nH]cn2)C1 [listing 2 of 2 here] | 0.59 |
| CN1CCN(C(=O)c2cc3cc(Cl)ccc3[nH]2)CC1 | -0.56 |
| N#C/N=C(/NCCSc1ccccc1)NC[C@@H]1CC[C@H](c2c[nH]cn2)C1 | -0.21 |
| N#C/N=C(/NCCSc1ccccc1)NC[C@H]1CC[C@H](c2c[nH]cn2)C1 | 0 |
| S=C(NC1CCCCC1)N1CCC(c2cnc[nH]2)CC1 | -0.59 |
| CC(C)CN/C(=N/C#N)NC[C@H]1CC[C@H](c2c[nH]cn2)C1 (racemic) | 0.54 |
| CN/C(=N\C#N)NC[C@@H]1CC[C@H](c2c[nH]cn2)C1 (racemic) [listing 2 of 2 here] | 0.51 |
| CN/C(=N\C#N)NC[C@H]1CC[C@H](c2c[nH]cn2)C1 (racemic) | -0.46 |
| N#C/N=C(/NCCSc1ccccc1)NC[C@@H]1CC[C@H](c2c[nH]cn2)C1 (racemic) | -0.34 |
| N#C/N=C(/NCCSc1ccccc1)NC[C@H]1CC[C@H](c2c[nH]cn2)C1 (racemic) | -0.4 |
| Cc1nc[nH]c1CCN [4-METHYLHISTAMINE] | 0.7 |

Molecular target: T3, Histamine H3 receptor
Assay: Displacement of [3H]N-alpha-methylhistamine from human histamine H3 receptor expressed in sf9 cell membrane co-expressing mammalian Galphai2 and Gbeta1gamma2 incubated for 60 mins by liquid scintillation counting method
Conditions: not given

| Structure (SMILES) | Ki |
| --- | --- |
| CN/C(=N\C#N)NC[C@H]1CC[C@H](c2c[nH]cn2)C1 [listing 1 of 2 here] | 0.958 µM |
| CN/C(=N\C#N)NC[C@@H]1CC[C@H](c2c[nH]cn2)C1 [listing 1 of 2 here] | 0.48 µM |
| CN/C(=N\C#N)NC[C@@H]1CC[C@H](c2c[nH]cn2)C1 (racemic) [listing 1 of 2 here] | 0.86 µM |

Molecular target: T4, Histamine H4 receptor (Homo sapiens, UniProt Q9H3N8)
T4 sequence (Q9H3N8 whole entry): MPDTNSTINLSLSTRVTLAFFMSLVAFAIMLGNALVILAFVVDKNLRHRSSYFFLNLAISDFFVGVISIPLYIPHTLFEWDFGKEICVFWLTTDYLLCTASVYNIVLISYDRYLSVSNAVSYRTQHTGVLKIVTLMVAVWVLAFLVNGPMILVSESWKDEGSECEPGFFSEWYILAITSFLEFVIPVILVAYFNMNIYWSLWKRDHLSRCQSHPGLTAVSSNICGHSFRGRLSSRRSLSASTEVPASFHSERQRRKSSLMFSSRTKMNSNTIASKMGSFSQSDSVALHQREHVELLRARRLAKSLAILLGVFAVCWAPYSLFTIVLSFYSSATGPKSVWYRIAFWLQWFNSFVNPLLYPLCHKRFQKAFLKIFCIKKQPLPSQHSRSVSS
Assay: Agonist activity at human histamine H4 receptor expressed in sf9 cell membrane co-expressing mammalian Galphai2 and Gbeta1gamma2 incubated for 90 mins by [35S]GTPgammaS binding assay
Format: functional
Conditions: not given

| Structure (SMILES) | EC50 |
| --- | --- |
| CN/C(=N\C#N)NC[C@H]1CC[C@H](c2c[nH]cn2)C1 [listing 1 of 2 here] | 0.1 µM |
| N#C/N=C(/NCCSc1ccccc1)N[C@H]1CC[C@@H](c2c[nH]cn2)CC1 | 0.11 µM |
| CN/C(=N\C#N)NC[C@@H]1CC[C@H](c2c[nH]cn2)C1 [listing 1 of 2 here] | 0.119 µM |
| CN/C(=N\C#N)NC[C@@H]1CC[C@H](c2c[nH]cn2)C1 (racemic) [listing 1 of 2 here] | 0.111 µM |
| CC(C)CN/C(=N/C#N)NC[C@H]1CC[C@H](c2c[nH]cn2)C1 (racemic) | 0.015 µM |

Molecular target: T4, Histamine H4 receptor
Assay: Displacement of [3H]UR-PI294 from human histamine H4 receptor expressed in sf9 cell membrane co-expressing mammalian Galphai2 and Gbeta1gamma2 incubated for 60 mins by liquid scintillation counting method
Conditions: not given

| Structure (SMILES) | Ki |
| --- | --- |
| CN/C(=N\C#N)NC[C@H]1CC[C@H](c2c[nH]cn2)C1 [listing 1 of 2 here] | 0.098 µM |
| CN/C(=N\C#N)NC[C@@H]1CC[C@H](c2c[nH]cn2)C1 [listing 1 of 2 here] | 0.12 µM |
| CN/C(=N\C#N)NC[C@@H]1CC[C@H](c2c[nH]cn2)C1 (racemic) [listing 1 of 2 here] | 0.155 µM |

Molecular target: T4, Histamine H4 receptor
Assay: Agonist activity at human SF-His6-tagged histamine H4 receptor expressed in HEK293 cells assessed as inhibition of forskolin-stimulated response incubated for 5 hrs by luciferase reporter gene assay
Format: cell-based
Conditions: not given

| Structure (SMILES) | EC50 |
| --- | --- |
| CN/C(=N\C#N)NC[C@H]1CC[C@H](c2c[nH]cn2)C1 [listing 1 of 2 here] | 0.063 µM |

Molecular target: T5, Histamine H4 receptor (Mus musculus, UniProt Q91ZY2)
T5 sequence (Q91ZY2 whole entry): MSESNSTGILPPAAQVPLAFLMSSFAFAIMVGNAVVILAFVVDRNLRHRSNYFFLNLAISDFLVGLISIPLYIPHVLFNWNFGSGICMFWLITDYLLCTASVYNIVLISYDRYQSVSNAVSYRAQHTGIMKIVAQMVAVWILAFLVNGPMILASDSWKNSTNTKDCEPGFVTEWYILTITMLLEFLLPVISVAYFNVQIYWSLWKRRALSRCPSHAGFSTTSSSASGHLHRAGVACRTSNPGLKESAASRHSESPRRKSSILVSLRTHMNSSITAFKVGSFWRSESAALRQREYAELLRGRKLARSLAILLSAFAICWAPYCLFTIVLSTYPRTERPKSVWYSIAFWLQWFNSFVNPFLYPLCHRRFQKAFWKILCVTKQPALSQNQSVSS
Assay: Agonist activity at mouse SF-His6-tagged histamine H4 receptor expressed in HEK293 cells assessed as inhibition of forskolin-stimulated response incubated for 5 hrs by luciferase reporter gene assay
Format: cell-based
Conditions: not given

| Structure (SMILES) | EC50 |
| --- | --- |
| CN/C(=N\C#N)NC[C@H]1CC[C@H](c2c[nH]cn2)C1 [listing 1 of 2 here] | 0.538 µM |

Molecular target: T6, Histamine H4 receptor (Mus musculus) (UniProt Q91ZY2)
T6 sequence (whole entry): T5 sequence (Q91ZY2 whole entry)
Assay: Intrinsic activity at mouse SF-His6-tagged histamine H4 receptor expressed in HEK293 cells assessed as inhibition of forskolin-stimulated response incubated for 5 hrs by luciferase reporter gene assay relative to histamine
Format: cell-based
Conditions: not given

| Structure (SMILES) | Intrinsic activity |
| --- | --- |
| CN/C(=N\C#N)NC[C@H]1CC[C@H](c2c[nH]cn2)C1 [listing 2 of 2 here] | 0.96 |
| N#C/N=C(/NCCSc1ccccc1)NC[C@H]1CC[C@H](c2c[nH]cn2)C1 | 0.67 |

Molecular target: T1, Histamine H1 receptor
Assay: Antagonist activity at human histamine H1 receptor expressed in sf9 cell membrane co-expressing RGS4 assessed as inhibition of histamine-induced increase in 32Pi level preincubated for 2 mins followed by [gamma-32P]GTP addition measured after 20 mins by liquid scintillation counting method
Conditions: not given

| Structure (SMILES) | Kb |
| --- | --- |
| N#C/N=C(/NCCSc1ccccc1)NC[C@@H]1CC[C@H](c2c[nH]cn2)C1 (racemic) | 3.8 µM |
| N#C/N=C(/NCCSc1ccccc1)NC[C@H]1CC[C@H](c2c[nH]cn2)C1 (racemic) | 6 µM |
